Experimental data from patent US11160790B2, “Method of inhibiting Cryptococcus growth using eltrombopag” (priority 2019, dated 2021).

How the values were obtained:
[1] = system: C. deuterogattii R265; experiment: Checkerboard titration assay; type: cell-based, Cryptococcus deuterogattii; conditions: 30° C., 48 hours
Procedure: (§1) Amphotericin B plus 5-flucytosine or fluconazole are combinations often used to treat cryptococcal meningitis. To investigate the synergy between eltrombopag and existing antifungal drugs or other drugs, a checkerboard titration assay was performed on Cryptococcus. Briefly, C. neoformans […] and C. deuterogattii […] cells were cultured overnight at 30° C. and then washed twice with double-distilled water. The cells were diluted to 10^3 cfu/mL with RPMI 1640 medium, and 100 μL of the cell suspension was added to each well of a 96-well polystyrene plate. […] After incubation at 30° C. for 48 hours, the growth of cells under different treatments was assessed by measuring the light absorbance at 600 nm (OD600). This assay allows the determination of fractional inhibitory concentration index (FICI): (MICcombined of drug A/MICalone of drug A)+(MICcombined of drug B/MICalone of drug B). After the checkerboard titration assay, the cells (3 μL) in the 96-well plate were transferred to drug-free YPD agar plates. After incubation at 30° C. for 48 hours, the agar plates were photographed and assessed for cell viability.

[2] = system: C. neoformans H99; experiment: Checkerboard titration assay; type: cell-based, Cryptococcus neoformans; conditions: 30° C., 48 hours
Procedure: as §1

[3] = system: C. neoformans H99; experiment: XTT-reduction assay of biofilm metabolic activity; type: cell-based, Cryptococcus neoformans; conditions: at respective MICs (1 mg/L amphotericin B, 4 mg/L fluconazole), 24 hours
Procedure: Cryptococcus biofilms, which are composed of Cryptococcus cells and extracellular matrix, enhance the tolerance of Cryptococcus to antifungal agents (such as amphotericin B) and host defense mechanisms. To assess whether eltrombopag impacts biofilm formation in Cryptococcus, an XTT-reduction assay was used to measure the metabolic activity of C. neoformans cells treated with eltrombopag at 37° C. Briefly, C. neoformans […] cells were cultured in YPD medium at 30° C. overnight. The cells were washed twice with phosphate buffered saline (PBS) and resuspended in RPMI 1640 medium with or without eltrombopag at the indicated concentrations. The cell suspension (0.0005 OD600/mL) was added to a 96-well polystyrene plate and incubated at 37° C. for 24 or 48 hours. […] After incubation, the cells were washed three times with PBS and subjected to XTT reduction assay to quantify formazan formation by measuring the light absorbance at 492 nm. The experiments were performed in triplicate, and the results were presented as mean±standard deviation. Statistical significance for the data sets was determined using a two-tailed t test.

| SMILES | MICalone [1] [mg/L] | MICcombined of AMB ([1]; AMB in combination with ETP) [mg/L] | MICalone [2] [mg/L] | MICcombined of AMB ([2]; AMB in combination with ETP) [mg/L] | reducing the metabolic activity of C. neoformans biofilms, compared with eltrombopag [3] | MICcombined of FK506 ([1]; FK506 in combination with ETP) [mg/L] | MICcombined of FK506 ([2]; FK506 in combination with ETP) [mg/L] | MICcombined of FLC ([1]; FLC in combination with ETP) [mg/L] | MICcombined of FLC ([2]; FLC in combination with ETP) [mg/L] |
| --- | --- | --- | --- | --- | --- | --- | --- | --- | --- |
| C[C@@H]1[C@H](O)[C@@H](C)/C=C/C=C/C=C/C=C/C=C/C=C/C=C/[C@H](O[C@@H]2O[C@H](C)[C@@H](O)[C@H](N)[C@@H]2O)C[C@@H]2O[C@](O)(C[C@@H](O)C[C@@H](O)[C@H](O)CC[C@@H](O)C[C@@H](O)CC(=O)O[C@H]1C)C[C@H](O)[C@H]2C(=O)O [AMB, amphotericin B] | 1 | 1 | 1 | 0.5 | less effective than eltrombopag |  |  |  |  |
| C=CC[C@@H]1/C=C(\C)C[C@H](C)C[C@H](OC)[C@H]2O[C@@](O)(C(=O)C(=O)N3CCCC[C@H]3C(=O)O[C@H](/C(C)=C/[C@@H]3CC[C@@H](O)[C@H](OC)C3)[C@H](C)[C@@H](O)CC1=O)[C@H](C)C[C@@H]2OC [FK506, tacrolimus] | >16 |  | >16 |  |  | 0.25 | 0.25 |  |  |
| OC(Cn1cncn1)(Cn1cncn1)c1ccc(F)cc1F [FLC, fluconazole] | 16 |  | 4 |  | less effective than eltrombopag |  |  | 16 | 8 |
